Measurements published in paper PMC8119899, “A Single Mutation in the Outer Lipid-Facing Helix of a Pentameric Ligand-Gated Ion Channel Affects Channel Function Through a Radially-Propagating Mechanism” (Frontiers in Molecular Biosciences, 2021).
Positions count from the first letter of the chain named.

How the values were obtained:
Assay type in all cases: cell-based
5-HT3A receptor K255Q = target: T1, 5-HT3A receptor K255Q (Mus musculus, UniProt P23979, K282Q); experiment: FlexStation membrane potential dye, 5-HT response, K255Q receptor in HEK293 cells; settings: mean and SEM, n ≥ 3
T1 construct: expressed in transfected cells; host or cells: Xenopus laevis oocytes (cRNA injection)
T1 sequence (P23979 24-489 K282Q): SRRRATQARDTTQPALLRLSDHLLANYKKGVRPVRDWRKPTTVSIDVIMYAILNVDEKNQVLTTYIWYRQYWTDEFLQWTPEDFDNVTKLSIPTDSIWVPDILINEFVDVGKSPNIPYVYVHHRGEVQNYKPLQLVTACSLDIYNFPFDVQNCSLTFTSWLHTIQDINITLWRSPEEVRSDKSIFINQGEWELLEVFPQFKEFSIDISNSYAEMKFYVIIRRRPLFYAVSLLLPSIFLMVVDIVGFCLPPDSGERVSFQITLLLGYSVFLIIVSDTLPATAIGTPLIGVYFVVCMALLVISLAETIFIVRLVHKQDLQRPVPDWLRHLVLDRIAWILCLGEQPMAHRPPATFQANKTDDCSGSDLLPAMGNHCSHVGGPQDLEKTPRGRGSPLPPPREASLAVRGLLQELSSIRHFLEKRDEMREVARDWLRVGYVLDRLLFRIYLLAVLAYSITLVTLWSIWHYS
Procedure: (§1) The mouse 5-HT3A cDNA (Q6J1J7) in pcDNA3.1 (for HEK cell transfection) or pGEMHE (for RNA production) was modified by QuikChange site-directed mutagenesis (Agilent Technologies) to create point mutants (verified by sequencing).
Human embryonic kidney (HEK) 293 cells were maintained at 37 °C at 5% CO2 in a humidified atmosphere, in Dulbecco's Modified Eagle's Medium/Nutrient Mix F12 (1:1) (Invitrogen, Paisley, UK) with GlutaMAX^TM and 10% fetal bovine serum (GE Healthcare) (DMEM/FBS) and passaged when confluent.
(§2) As described previously (Price and Lummis, [2005]) cells were incubated for 45 min with fluorescent membrane potential-sensitive dye (Membrane Potential Blue kit, Molecular Devices) diluted in Flex buffer (10 mM HEPES, 115 mM NaCl, 1 mM KCl, 1 mM CaCl2, 1 mM MgCl2, and 10 mM glucose, pH 7.4), and subsequently assayed at room temperature for 180 s, with readings every 2 s. […] (log of the concentration of ligand), a is the minimum response, b is the maximum response, and nH is the Hill slope.

5-HT3A receptor D238A = target: T2, 5-HT3A receptor D238A (Mus musculus, UniProt P23979, D265A); experiment: FlexStation membrane potential dye, 5-HT response, D238A receptor in HEK293 cells; set-up: expressed in transfected cells; host or cells: HEK293; key to pEC50: Mutants that did not respond in the functional assay are marked as non functional (NF)
T2 sequence (P23979 24-489 D265A): T1 sequence (P23979 24-489 K282Q) with D242A, Q259K
Procedure: as §1
Human embryonic kidney (HEK) 293 cells were maintained at 37 °C at 5% CO2 in a humidified atmosphere, in Dulbecco's Modified Eagle's Medium/Nutrient Mix F12 (1:1) (Invitrogen, Paisley, UK) with GlutaMAX^TM and 10% fetal bovine serum (GE Healthcare) (DMEM/FBS) and passaged when confluent. Five micrograms of WT or mutant 5-HT3A DNA and 30 μl polyethyleneamine (Polysciences) incubated for 10 min in 1 mL DMEM was added to 60% confluent HEK293 cells for transfection, and cells grown for 2 days before assays.
as §2

5-HT3A receptor Y441A = target: T3, 5-HT3A receptor Y441A (Mus musculus, UniProt P23979, Y468A); experiment: Two-electrode voltage clamp, 5-HT response, Y441A receptor in Xenopus oocytes; set-up: expressed in transfected cells; host or cells: Xenopus laevis oocytes (cRNA injection); settings: mean and SEM, n ≥ 3
T3 sequence (P23979 24-489 Y468A): T1 sequence (P23979 24-489 K282Q) with Q259K, Y445A
Procedure: as §1
Xenopus laevis oocytes from EcoCyte Biosciences (Austin Texas) were injected with 100 pg cRNA (generated with the ThermoFisher mMESSAGE mMACHINE T7 transcription kit) and left in injection media [88 mM NaCl, 2.4 mM NaHCO3, 1 mM KCl, 0.82 mM MgSO4 ·7H20, 5 mM Tris-HCl, 0.33 mM Ca(NO3)2·4H2O, 0.41 mM CaCl2·2H2O, 2.51 mM sodium pyruvate, 0.12 mg/ml theophylline, 0.05 mg/ml gentamicin, pH 7.5] at 16 °C for 24 h. […] The holding potential was −60 mV, using glass microelectrodes with a resistance of approximately 1 MΩ backfilled with 3M KCl.

## NCCc1c[nH]c2ccc(O)cc12 [5-HT]
5-HT3A receptor K255Q
  nH: 1.9± 0.2
5-HT3A receptor D238A
  pEC50: NF
  response to application of 5-HT: Neither Y441A nor D238A responded
5-HT3A receptor Y441A
  nH: 1.0 ± 0.1
